Legend:
[1] = Safety assessment (TEAEs), itraconazole study
Method: On days 8 through 10, participants received itraconazole 200 mg once daily with a meal or snack. On day 11, participants received ripretinib 50 mg 1 hour after itraconazole 200 mg under fasting conditions. On days 12 through 17, participants received itraconazole 200 mg once daily with a meal or snack. […] Safety was assessed throughout and a follow‐up safety phone call was conducted at day 24 or 7 days after the last dose of study drug if participants withdrew early.
TEAEs were defined as adverse events (AEs) that occurred/worsened during or after administration of any of the study drugs. Relationship to study drug was assessed by the investigator. The safety population included all enrolled participants who received ≥1 dose of ripretinib.
Participant demographics, clinical characteristics, and PK parameters were summarized using descriptive statistics. Safety data were summarized as n (%). […] PK parameters were calculated using Phoenix® WinNonlin® v7.0 or higher (Certara USA Inc.).

[2] = Safety assessment (TEAEs), rifampin study; format: in vivo, human
Method: Participants were confined to the study center from days −1 through 22 for the collection of plasma PK samples and all study procedures. Participants received an oral dose of ripretinib 100 mg on day 1 under fasting conditions; a higher dose of ripretinib was used than in the itraconazole or pantoprazole study due to the potential for decreased ripretinib exposure when coadministered with a strong CYP3A inducer (Figure 1B). On day 8, participants received oral doses of rifampin 600 mg once daily 1 hour before a meal with a full glass of water for 14 consecutive days through day 21. On day 18, participants received a second dose of ripretinib 100 mg administered simultaneously with rifampin 600 mg under fasting conditions. Blood samples for PK analysis were collected at predose and 1, 2, 3, 4, 5, 8, 10, 12, 24, 36, 48, 72, and 96 hours after administration of ripretinib on days 1 and 18. Safety was assessed throughout the study period and with a follow‐up phone call on day 29 or 7 days after discontinuation in the case of early withdrawal.
Relationship to study drug was assessed by the investigator.
Safety data were summarized as n (%).

CYP2C19 = CYP2C19 (Homo sapiens, UniProt P33261); experiment: Incubation with recombinant human CYPs, substrate disappearance; format: in vitro ADME; details: data on file
Method: (§1) In vitro studies with recombinant human cytochrome P450 isoforms (CYPs) and human liver microsomes (with chemical inhibitors) indicate that CYP3A4/5 plays a major role in the metabolism of ripretinib (data on file). When incubated with a panel of recombinant human CYPs, ripretinib (0.1 or 1 μM) disappeared in the presence of CYP3A4 (87.8%–100%), CYP2D6 (97.7%–100%), CYP2C8 (71.2% and 18.9%, respectively), and CYP2C19 (15.7% and 6.7%, respectively).

CYP2C9 = CYP2C9 (Homo sapiens, UniProt P11712); experiment: as above; format: in vitro ADME; details: ripretinib 0.1 or 1 μM, data on file
Method: as §1

CYP3A4 = CYP3A4 (Homo sapiens, UniProt P08684); experiment: as above; format: in vitro ADME; details: ripretinib 0.1 or 1 μM, data on file
Method: as §1

CYP2B6 = biological target: T1, CYP2B6 (Homo sapiens, UniProt P20813); experiment: as above; format: in vitro ADME; details: ripretinib 0.1 or 1 μM, data on file
T1 sequence (P20813 1-491): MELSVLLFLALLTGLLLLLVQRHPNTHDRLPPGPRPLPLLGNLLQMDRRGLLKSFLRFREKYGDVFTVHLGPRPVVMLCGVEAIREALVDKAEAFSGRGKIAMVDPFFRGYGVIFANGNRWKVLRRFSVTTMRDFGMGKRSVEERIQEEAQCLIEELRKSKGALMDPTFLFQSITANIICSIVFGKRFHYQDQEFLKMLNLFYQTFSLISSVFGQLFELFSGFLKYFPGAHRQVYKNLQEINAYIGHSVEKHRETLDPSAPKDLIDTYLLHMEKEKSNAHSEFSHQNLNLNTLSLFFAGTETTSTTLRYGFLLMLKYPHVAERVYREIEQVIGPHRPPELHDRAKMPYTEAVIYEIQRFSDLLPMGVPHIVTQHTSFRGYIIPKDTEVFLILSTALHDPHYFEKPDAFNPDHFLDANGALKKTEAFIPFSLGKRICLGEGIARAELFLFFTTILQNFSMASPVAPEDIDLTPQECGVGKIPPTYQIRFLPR
Method: as §1

CYP2D6 = biological target: T2, CYP2D6 (Homo sapiens, UniProt P10635); experiment: as above; format: in vitro ADME; details: ripretinib 0.1 or 1 μM, data on file
T2 construct: with human liver microsomes (0.5 mg protein/mL) for 30 minutes; from tissue; host or cells: human liver microsomes
Method: as §1

CYP2C8 = biological target: T3, CYP2C8 (Homo sapiens, UniProt P10632); experiment: as above; format: in vitro ADME; details: data on file
T3 sequence (P10632 1-490): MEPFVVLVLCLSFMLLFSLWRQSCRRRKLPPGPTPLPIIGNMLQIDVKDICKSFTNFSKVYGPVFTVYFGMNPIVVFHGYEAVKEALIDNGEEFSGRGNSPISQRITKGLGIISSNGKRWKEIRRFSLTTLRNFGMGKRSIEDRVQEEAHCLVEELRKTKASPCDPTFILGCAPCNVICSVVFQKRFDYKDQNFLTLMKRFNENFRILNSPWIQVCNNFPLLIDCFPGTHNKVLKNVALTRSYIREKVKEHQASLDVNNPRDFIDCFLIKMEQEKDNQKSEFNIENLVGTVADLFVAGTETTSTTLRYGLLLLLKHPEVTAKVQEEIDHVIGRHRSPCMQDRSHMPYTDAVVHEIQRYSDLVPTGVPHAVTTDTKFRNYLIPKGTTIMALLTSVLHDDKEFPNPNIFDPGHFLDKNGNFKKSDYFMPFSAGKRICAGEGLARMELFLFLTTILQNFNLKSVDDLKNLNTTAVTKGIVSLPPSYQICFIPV
Method: as §1

[3] = itraconazole study: ripretinib 50 mg alone and with itraconazole 200 mg QD, safety population N = 20

CYP2C19, sequence (P33261 whole entry, canonical isoform): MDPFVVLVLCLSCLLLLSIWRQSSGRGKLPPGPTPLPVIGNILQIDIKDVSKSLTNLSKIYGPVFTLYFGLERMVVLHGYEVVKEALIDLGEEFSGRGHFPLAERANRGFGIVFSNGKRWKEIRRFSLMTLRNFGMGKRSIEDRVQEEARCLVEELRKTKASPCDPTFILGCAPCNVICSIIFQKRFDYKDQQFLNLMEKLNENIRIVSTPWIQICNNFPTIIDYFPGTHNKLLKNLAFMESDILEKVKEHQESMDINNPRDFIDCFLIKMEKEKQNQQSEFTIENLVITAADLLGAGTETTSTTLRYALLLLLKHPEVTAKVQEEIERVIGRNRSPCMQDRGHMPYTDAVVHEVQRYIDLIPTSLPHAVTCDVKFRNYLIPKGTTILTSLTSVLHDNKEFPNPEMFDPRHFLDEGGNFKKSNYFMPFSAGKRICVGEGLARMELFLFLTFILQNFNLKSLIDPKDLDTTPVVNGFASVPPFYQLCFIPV
CYP2C9, sequence (P11712 whole entry): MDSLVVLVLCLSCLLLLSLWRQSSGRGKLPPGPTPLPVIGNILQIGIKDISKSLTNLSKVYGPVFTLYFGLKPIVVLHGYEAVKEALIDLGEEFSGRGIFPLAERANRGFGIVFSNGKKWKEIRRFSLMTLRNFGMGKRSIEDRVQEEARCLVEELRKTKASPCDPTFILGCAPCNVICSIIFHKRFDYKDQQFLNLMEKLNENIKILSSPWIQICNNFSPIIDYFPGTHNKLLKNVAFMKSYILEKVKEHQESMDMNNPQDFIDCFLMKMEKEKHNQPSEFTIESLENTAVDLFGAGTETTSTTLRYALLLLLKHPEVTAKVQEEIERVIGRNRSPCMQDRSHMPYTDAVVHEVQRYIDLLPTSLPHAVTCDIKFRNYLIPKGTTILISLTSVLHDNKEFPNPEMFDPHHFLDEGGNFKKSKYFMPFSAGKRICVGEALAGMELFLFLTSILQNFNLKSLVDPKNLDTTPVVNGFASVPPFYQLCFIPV
CYP3A4, sequence (P08684 whole entry): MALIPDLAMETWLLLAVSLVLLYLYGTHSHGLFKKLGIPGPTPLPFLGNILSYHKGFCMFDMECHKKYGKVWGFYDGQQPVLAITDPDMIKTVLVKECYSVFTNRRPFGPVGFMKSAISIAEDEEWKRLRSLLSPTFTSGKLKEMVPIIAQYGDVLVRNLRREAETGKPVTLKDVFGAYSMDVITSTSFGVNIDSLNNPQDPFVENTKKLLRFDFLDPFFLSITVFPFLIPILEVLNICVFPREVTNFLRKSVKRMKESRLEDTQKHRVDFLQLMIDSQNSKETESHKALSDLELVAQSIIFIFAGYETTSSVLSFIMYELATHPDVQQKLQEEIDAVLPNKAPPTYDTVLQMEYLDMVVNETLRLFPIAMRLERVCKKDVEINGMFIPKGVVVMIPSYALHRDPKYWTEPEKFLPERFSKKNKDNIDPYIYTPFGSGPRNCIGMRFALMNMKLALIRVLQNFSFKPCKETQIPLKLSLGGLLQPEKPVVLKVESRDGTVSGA
T2 sequence (P10635 whole entry): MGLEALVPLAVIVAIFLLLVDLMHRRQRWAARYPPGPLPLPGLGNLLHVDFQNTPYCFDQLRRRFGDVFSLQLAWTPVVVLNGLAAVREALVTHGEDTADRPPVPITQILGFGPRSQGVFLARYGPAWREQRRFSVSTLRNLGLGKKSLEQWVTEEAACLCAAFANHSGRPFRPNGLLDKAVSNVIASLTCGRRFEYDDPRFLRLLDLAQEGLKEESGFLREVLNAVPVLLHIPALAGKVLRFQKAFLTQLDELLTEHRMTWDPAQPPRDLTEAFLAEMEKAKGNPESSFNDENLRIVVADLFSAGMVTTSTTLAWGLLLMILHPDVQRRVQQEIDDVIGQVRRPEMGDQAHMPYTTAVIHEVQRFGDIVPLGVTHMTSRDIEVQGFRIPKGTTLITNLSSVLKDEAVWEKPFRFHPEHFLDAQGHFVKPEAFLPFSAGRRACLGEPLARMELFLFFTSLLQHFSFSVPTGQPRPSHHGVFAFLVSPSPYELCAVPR

With `CCn1c(=O)c(-c2cc(NC(=O)Nc3ccccc3)c(F)cc2Br)cc2cnc(NC)cc21` [Ripretinib] the “Deaths and serious AEs” value ([1]; itraconazole study, N = 20) was “No deaths occurred and no participants experienced serious AEs”, the “Number of TEAEs attributed to study drug” value ([1]; itraconazole study, N = 20) was 36 and the “Participants with TEAEs attributed to study drug per the investigator” value ([1]; itraconazole study, N = 20) was 13 (65%) n (%). For the same compound, the “Total number of TEAEs” value ([1]; itraconazole study, N = 20) was 44, the “Participants reporting any TEAE” value [1, 3] was 14 (70.0) n (%) and the “TEAE: ALT increase” value [1, 3] was 1 (5.0) n (%). The “TEAE: AST increase” value [1, 3] was 0 n (%), the “TEAE: Abdominal discomfort” value [1, 3] was 0 n (%) and the “TEAE: Abdominal pain” value [1, 3] was 3 (15.0) n (%). For the same compound, the “TEAE: Abdominal pain lower” value [1, 3] was 1 (5.0) n (%), the “TEAE: Amylase increase” value [1, 3] was 4 (20.0) n (%) and the “TEAE: Constipation” value [1, 3] was 1 (5.0) n (%). For the same compound, the “TEAE: Diarrhea” value [1, 3] was 4 (20.0) n (%), the “TEAE: Fatigue” value [1, 3] was 1 (5.0) n (%) and the “TEAE: Headache” value [1, 3] was 2 (10.0) n (%). For the same compound, the “TEAE: Lipase increase” value [1, 3] was 5 (25.0) n (%), the “TEAE: Nausea” value [1, 3] was 2 (10.0) n (%) and the “TEAE: Vomiting” value [1, 3] was 1 (5.0) n (%). For the same compound, the “Participants reporting any TEAE” value ([1]; itraconazole study: ripretinib 50 mg alone and with itraconazole 200 mg QD, safety population N = 20, listed as ripretinib) was 14 (70%) n (%), the “Number of TEAEs assessed as related to study drug” value ([2]; human, in vivo, 21 days) was 78 and the “Participants with TEAEs assessed as related to study drug per the investigator” value ([2]; human, in vivo, 21 days) was 23 (95.8%) n (%). The “Total number of TEAEs” value ([2]; human, in vivo, 21 days) was 94, the “Deaths and serious AEs” value ([2]; rifampin study, N = 24) was “No deaths or SAEs occurred” and the Substrate disappearance (CYP2C19; ripretinib 0.1 μM) was 15.7%. For the same compound, the Substrate disappearance (CYP2C19; ripretinib 1 μM) was 6.7%, the Substrate disappearance (CYP2C9) was “less than 7%” and the Substrate disappearance (CYP3A4) was 87.8%–100%. For the same compound, the Substrate disappearance (CYP2B6) was “less than 7%”, the Substrate disappearance (CYP2D6) was 97.7%–100% and the Substrate disappearance (CYP2C8; ripretinib 0.1 μM) was 71.2%. It also gave a Substrate disappearance (CYP2C8; ripretinib 1 μM) of 18.9%.

From article PMC9790248, “Effects of CYP3A Inhibition, CYP3A Induction, and Gastric Acid Reduction on the Pharmacokinetics of Ripretinib, a Switch Control KIT Tyrosine Kinase Inhibitor” (Clinical Pharmacology in Drug Development, 2022)
